Measurements published in publication PMC3433708, “Structural Basis for Specific Recognition of Substrates by Sapovirus Protease” (Frontiers in Microbiology, 2012).

biological target: T1, SaV protease (3C-like protease domain of NS6-7, Pro^wt) (Sapovirus Mc10, UniProt Q6XDK8); assay: in vitro trans cleavage assay, […]-labelled ORF1 polyprotein (Pro^mut), SDS-PAGE, NS4-NS5 band; type: biochemical
T1 construct: gene ORF1; partial ORF1 polyprotein NS6-7-VP1 with functional protease, made by coupled in vitro transcription/translation in rabbit reticulocyte lysate, not purified; protease domain 146 residues; from ORF1 polyprotein of 2278 residues
T1 sequence (Q6XDK8 1056-1201): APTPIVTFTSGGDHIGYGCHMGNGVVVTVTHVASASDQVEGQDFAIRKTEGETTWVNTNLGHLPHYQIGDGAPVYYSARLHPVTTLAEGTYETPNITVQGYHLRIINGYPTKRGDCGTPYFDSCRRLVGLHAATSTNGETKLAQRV

How did the IC50 turn out when `CN(C)c1ccc(/C=C2\CCCC3C2=NN(C(=O)CCC(=O)O)C3c2ccc(N(C)C)cc2)cc1` (stereo not drawn) [compound 50, Compound No.50] was run?
The IC50 was 26.5 µM.

With `Cc1cccc(N2CCN(c3ccc(C(=O)O)cc3NS(=O)(=O)c3cc(C)cc(C)c3)CC2C)c1` (stereo not drawn) [compound 100, Compound No.100] as the compound, how does the IC50 read?
The IC50 was 18.4 µM.

With `Cc1ccc(C)n1C(CC(=O)O)c1ccc(OCc2ccccc2)cc1` (stereo not drawn) [compound 116, Compound No.116] as the compound, how does the IC50 read?
The IC50 was 18.4 µM.
